Consider 2 compounds from US20190364890A1, “SYNERGISTIC COMBINATION OF ORTHO-PHENYLPHENOL AND BIS-(3-AMINOPROPYL)DODECYLAMINE” (Dow Global Technologies LLC, priority 2016, published 2019).

Common to all, as to assay: Minimum Inhibitory Concentration (MIC) test / synergy testing
Type in all cases: cell-based

One assay relates to Pseudomonas putida. The note with it: single biocide, TSB medium pH 5, 30° C., 48 hours. Here is the method:
(§1) The synergism of the biocides combination of the present invention was determined using the Minimum Inhibitory (MIC) test method described by Kull, F. C., et. al in Applied Microbiology 9:538-541 (1961).
(§2) The Minimum Inhibitory Concentration Test (MIC) is designed to evaluate the lowest concentration of a biocide, biocide blend or biocide combination to prevent bacteria growing in a defined broth.
(§3) The MICs of the single biocides NaOPP and BDA as well as of combinations of these two actives (all in TSB) in 3 different ratios (1:1; 10:1, 100:1) were estimated against each of the 4 microorganisms Staphylococcus aureus (DSMZ#799), Pseudomonas aeruginosa (DSMZ#939) and Candida albicans (DSMZ#1386), Pseudomonas putida, respectively.
(§4) The synergy testing was carried out as follows: • 1. The test was executed with a Hamilton MLStarPlus robot using automated turbidity reading with BioTek Synergy H4 plate reader. • 2. Biocide systems were prepared in 2.2 ml deep well plates by transferring and diluting biocides from stock solutions to first rows of the plates. The concentrations of biocides in stock bottles were adjusted to be 20× more concentrated than the highest desired concentration. • 3. Then 15 subsequent serial dilutions with dilution factor 1.3 were performed resulting in 16 different concentrations for each system. • 4. In the next step serially diluted biocide systems were transferred to the media blocks containing 850 μl of TSB medium adjusted to pH 5. For each biocide system 100 μl was transferred to the media, resulting in 950 μl of final volume of media+biocides and 9.5 times dilution of the biocides from the biocide plate. At this point, the concentrations of all biocides in media were 1.053×final concentration. • 5. After preparation and mixing of the described systems, 4 aliquots of 190 μl were prepared in 96-well microtiter plates. • 6. Preparation of the microbe suspension:
(§5) • The culture was maintained as a glycerol stock at −80° C. in cryovials. A cryovial was thawed and then 100 μl spread on a TSA agar plate. After incubation for 1 day at 30° C. the bacteria were harvested with buffer at pH 7.3. A total viable count on TSA plate was carried out and bacterial suspension was diluted in buffer in order to deliver ˜2×10^7 CFU/ml.
(§6) • The cultures were maintained as glycerol stocks at −80° C. in cryovials, are thawed and then 100 μl spread on MEA (malt extract agar) petri dishes. • The yeast strain plates were incubated at 28° C. for 1-2 days then harvested with buffer pH 5.0. • Based on total viable count results, the inoculum was prepared. • 7. Each test sample (190 μl) was inoculated with the 10 μl of microbe suspension to provide a level of ˜1×10^6 CFU/ml of the bacteria species and ˜1×10^5 CFU/ml of the yeast species. • 8. The test samples were mixed and incubated at 30° C. for 2 days (48 hours) when tested against bacteria and 3 days (72 hours), respectively, when tested against yeast. • 9. Growth of the micro-organisms leads to turbidity after incubation, clarity indicates no growth. Reading of the results was carried out by measuring absorbance at 600 nm for each sample at the beginning of the test (tzero) and after incubation (tendpoint). tendpoint was chosen at 48 hours for bacteria and 72 hours for yeast. The difference in absorbance between tendpoint and tzero was used to assign a score (“1” if Δ>0.2, confirming growth, and “0” if Δ≤0.2, confirming no growth) from which the MIC values were derived.

The subject of assay [1] is Staphylococcus aureus DSM# 799. Particulars: single biocide, TSB medium pH 5, 30° C., 48 hours. As to the method: as §1, §2, §3, §4, §5, §6
In assay [2] the test system is Pseudomonas aeruginosa DSM# 939. The note with it: single biocide, TSB medium pH 5, 30° C., 48 hours. Here is the method: as §1, §2, §3, §4, §5, §6
Assay [3] relates to Candida albicans DSM# 1386. The note with it: single biocide, TSB medium pH 5, 30° C., 72 hours. As to the method: as §1
The Minimum Inhibitory Concentration Test (MIC) is designed to evaluate the lowest concentration of a biocide, biocide blend or biocide combination to prevent bacteria growing in a defined broth. […]
The synergy testing was carried out as follows: • 1. The test was executed with a Hamilton MLStarPlus robot using automated turbidity reading with BioTek Synergy H4 plate reader. • 2. […]
• The cultures were maintained as glycerol stocks at −80° C. in cryovials, are thawed and then 100 μl spread on MEA (malt extract agar) petri dishes. • The yeast strain plates were incubated at 28° C. for 1-2 days then harvested with buffer pH 5.0. • Based on total viable count results, the inoculum was prepared. • 7. […] Reading of the results was carried out by measuring absorbance at 600 nm for each sample at the beginning of the test (tzero) and after incubation (tendpoint). tendpoint was chosen at 48 hours for bacteria and 72 hours for yeast. The difference in absorbance between tendpoint and tzero was used to assign a score (“1” if Δ>0.2, confirming growth, and “0” if Δ≤0.2, confirming no growth) from which the MIC values were derived.

As to `CCCCCCCCCCCCN(CCCN)CCCN` [BDA, bis-(3-aminopropyl)dodecylamine], the MIC in the assay on Pseudomonas putida (Pseudomonas putida, read-out: MIC results for single biocides) is 200 µg/mL; in assay [1] (Staphylococcus aureus, DSM799, read-out: MIC results for single biocides), 91 µg/mL; in assay [2] (Pseudomonas aeruginosa, DSM939, read-out: MIC results for single biocides), 200 µg/mL; in assay [3] (Candida albicans, DSM1386, read-out: MIC results for single biocides), no less than 260 µg/mL.

Take `[Na+].[O-]c1ccccc1-c1ccccc1` [NAOPP, sodium ortho-phenylphenate]: the “MIC results for single biocides” value in the assay on Pseudomonas putida stood at 283 ppm; in assay [1], 129 ppm; in assay [2], 167 ppm; in assay [3], 167 ppm.

By MIC is commonly meant the least concentration at which growth counts as inhibited.
